Columns and labels:
Assay in all cases: relative viability vs DMSO control (72 h) (fraction); higher = more viable cells
HT1080 = system: HT1080
Method in brief: (§1)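 After seeding at densities set for 80–90% confluence in 384-well plates, sarcoma cell lines waited 24 h before 2.5 µl of serially diluted compound was added. Source plates held 10 mM down to 0.0002 mM. Plates were incubated 72 h at 37 °C with 5% CO2, with 0.1% DMSO vehicle and a 5 µM positive control, and relative viability was taken from ATPLite as percent growth averaged over up to triplicate wells, with 1 set as full and 0 as none.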

SW872 = system: SW872
Method in brief: as §1

SK-LMS-1 = system: SK-LMS-1
Method in brief: as §1

KHOS-NP = system: KHOS-NP
Method in brief: as §1

HS729 = system: HS729
Method in brief: as §1

SK-ES-1 = system: SK-ES-1
Method in brief: as §1

A204 = system: A204
Method in brief: as §1

VA-ES-BJ = system: VA-ES-BJ
Method in brief: as §1

SW684 = system: SW684
Method in brief: as §1

G401 = system: G401
Method in brief: as §1

SW982 = system: SW982
Method in brief: as §1

RD-ES = system: RD-ES
Method in brief: as §1

CN(C)C[C@@H]1CCn2cc(c3ccccc32)C2=C(C(=O)NC2=O)c2cn(c3ccccc23)CCO1 [Ruboxistaurin]
Settings	relative viability
A204, 0.00017 µM	1.08
A204, 0.00051 µM	1.07
A204, 0.00152 µM	1.08
A204, 0.00457 µM	1.06
A204, 0.01372 µM	1.06
A204, 0.04115 µM	1.08
A204, 0.1235 µM	1.03
A204, 0.3704 µM	1.05
A204, 1.111 µM	0.881
A204, 3.333 µM	0.808
A204, 10 µM	0.0478
G401, 0.00017 µM	1.03
G401, 0.00051 µM	1.01
G401, 0.00152 µM	0.988
G401, 0.00457 µM	1.01
G401, 0.01372 µM	1.02
G401, 0.04115 µM	0.961
G401, 0.1235 µM	1.02
G401, 0.3704 µM	1.01
G401, 1.111 µM	0.958
G401, 3.333 µM	0.938
G401, 10 µM	0.0283
HS729, 0.00017 µM	0.917
HS729, 0.00051 µM	0.936
HS729, 0.00152 µM	0.8749
HS729, 0.00457 µM	0.882
HS729, 0.01372 µM	0.895
HS729, 0.04115 µM	0.939
HS729, 0.1235 µM	0.894
HS729, 0.3704 µM	0.819
HS729, 1.111 µM	0.917
HS729, 3.333 µM	0.835
HS729, 10 µM	0.812
HT1080, 0.00017 µM	1.06
HT1080, 0.00051 µM	1.1
HT1080, 0.00152 µM	1.05
HT1080, 0.00457 µM	1.04
HT1080, 0.01372 µM	1.05
HT1080, 0.04115 µM	1.06
HT1080, 0.1235 µM	1.08
HT1080, 0.3704 µM	1.03
HT1080, 1.111 µM	1.08
HT1080, 3.333 µM	1.12
HT1080, 10 µM	0.904
KHOS-NP, 0.00017 µM	1.09
KHOS-NP, 0.00051 µM	1.09
KHOS-NP, 0.00152 µM	1.06
KHOS-NP, 0.00457 µM	1.07
KHOS-NP, 0.01372 µM	1.06
KHOS-NP, 0.04115 µM	1.08
KHOS-NP, 0.1235 µM	1.073
KHOS-NP, 0.3704 µM	1.093
KHOS-NP, 1.111 µM	1.1
KHOS-NP, 3.333 µM	1.073
KHOS-NP, 10 µM	1.045
RD-ES, 0.00017 µM	0.981
RD-ES, 0.00051 µM	0.993
RD-ES, 0.00152 µM	0.9893
RD-ES, 0.00457 µM	0.988
RD-ES, 0.01372 µM	0.952
RD-ES, 0.04115 µM	0.978
RD-ES, 0.1235 µM	0.956
RD-ES, 0.3704 µM	0.993
RD-ES, 1.111 µM	0.96
RD-ES, 3.333 µM	0.862
RD-ES, 10 µM	0.0404
SK-ES-1, 0.00017 µM	1.03
SK-ES-1, 0.00051 µM	1.06
SK-ES-1, 0.00152 µM	1.07
SK-ES-1, 0.00457 µM	1.08
SK-ES-1, 0.01372 µM	1.07
SK-ES-1, 0.04115 µM	1.02
SK-ES-1, 0.1235 µM	1.01
SK-ES-1, 0.3704 µM	0.963
SK-ES-1, 1.111 µM	0.869
SK-ES-1, 3.333 µM	0.74
SK-ES-1, 10 µM	0.421
SK-LMS-1, 0.00017 µM	1.05
SK-LMS-1, 0.00051 µM	1.02
SK-LMS-1, 0.00152 µM	1.05
SK-LMS-1, 0.00457 µM	1.05
SK-LMS-1, 0.01372 µM	1.09
SK-LMS-1, 0.04115 µM	1.08
SK-LMS-1, 0.1235 µM	1.05
SK-LMS-1, 0.3704 µM	0.995
SK-LMS-1, 1.111 µM	0.922
SK-LMS-1, 3.333 µM	0.778
SK-LMS-1, 10 µM	0.4619
SW684, 0.00017 µM	1.12
SW684, 0.00051 µM	1.157
SW684, 0.00152 µM	1.158
SW684, 0.00457 µM	1.17
SW684, 0.01372 µM	1.16
SW684, 0.04115 µM	1.11
SW684, 0.1235 µM	1.15
SW684, 0.3704 µM	1.16
SW684, 1.111 µM	1.14
SW684, 3.333 µM	1.15
SW684, 10 µM	0.857
SW872, 0.00017 µM	1
SW872, 0.00051 µM	1.04
SW872, 0.00152 µM	1.02
SW872, 0.00457 µM	1.06
SW872, 0.01372 µM	0.989
SW872, 0.04115 µM	1.04
SW872, 0.1235 µM	1.01
SW872, 0.3704 µM	1.02
SW872, 1.111 µM	0.9094
SW872, 3.333 µM	0.846
SW872, 10 µM	0.599
SW982, 0.00017 µM	1.03
SW982, 0.00051 µM	1.03
SW982, 0.00152 µM	1.04
SW982, 0.00457 µM	1.03
SW982, 0.01372 µM	1.05
SW982, 0.04115 µM	1.04
SW982, 0.1235 µM	1.04
SW982, 0.3704 µM	1.03
SW982, 1.111 µM	0.949
SW982, 3.333 µM	0.846
SW982, 10 µM	0.349
VA-ES-BJ, 0.00017 µM	0.988
VA-ES-BJ, 0.00051 µM	0.999
VA-ES-BJ, 0.00152 µM	0.984
VA-ES-BJ, 0.00457 µM	0.988
VA-ES-BJ, 0.01372 µM	0.982
VA-ES-BJ, 0.04115 µM	0.996
VA-ES-BJ, 0.1235 µM	0.9734
VA-ES-BJ, 0.3704 µM	0.945
VA-ES-BJ, 1.111 µM	0.861
VA-ES-BJ, 3.333 µM	0.825
VA-ES-BJ, 10 µM	0.651

Cc1ccc(NC(=O)c2ccc(CN3CCN(C)CC3)cc2)cc1Nc1nccc(-c2cccnc2)n1 [Imatinib]
Settings	relative viability
A204, 0.00017 µM	1.01
A204, 0.00051 µM	1.01
A204, 0.00152 µM	0.993
A204, 0.00457 µM	0.99
A204, 0.01372 µM	0.95
A204, 0.04115 µM	0.87
A204, 0.1235 µM	0.738
A204, 0.3704 µM	0.491
A204, 1.111 µM	0.389
A204, 3.333 µM	0.312
A204, 10 µM	0.196
G401, 0.00017 µM	0.963
G401, 0.00051 µM	0.988
G401, 0.00152 µM	0.958
G401, 0.00457 µM	0.938
G401, 0.01372 µM	0.956
G401, 0.04115 µM	0.945
G401, 0.1235 µM	0.951
G401, 0.3704 µM	0.946
G401, 1.111 µM	0.925
G401, 3.333 µM	0.823
G401, 10 µM	0.518
HS729, 0.00017 µM	0.972
HS729, 0.00051 µM	0.996
HS729, 0.00152 µM	1.02
HS729, 0.00457 µM	0.991
HS729, 0.01372 µM	0.977
HS729, 0.04115 µM	0.985
HS729, 0.1235 µM	0.993
HS729, 0.3704 µM	0.945
HS729, 1.111 µM	0.917
HS729, 3.333 µM	0.86
HS729, 10 µM	0.522
HT1080, 0.00017 µM	1.06
HT1080, 0.00051 µM	1
HT1080, 0.00152 µM	0.989
HT1080, 0.00457 µM	1.02
HT1080, 0.01372 µM	1.03
HT1080, 0.04115 µM	0.987
HT1080, 0.1235 µM	1.01
HT1080, 0.3704 µM	0.968
HT1080, 1.111 µM	0.973
HT1080, 3.333 µM	0.942
HT1080, 10 µM	0.643
KHOS-NP, 0.00017 µM	1.01
KHOS-NP, 0.00051 µM	1.001
KHOS-NP, 0.00152 µM	1.01
KHOS-NP, 0.00457 µM	1
KHOS-NP, 0.01372 µM	1.02
KHOS-NP, 0.04115 µM	0.997
KHOS-NP, 0.1235 µM	1.03
KHOS-NP, 0.3704 µM	1.01
KHOS-NP, 1.111 µM	1.01
KHOS-NP, 3.333 µM	0.8795
KHOS-NP, 10 µM	0.609
RD-ES, 0.00017 µM	0.954
RD-ES, 0.00051 µM	0.957
RD-ES, 0.00152 µM	0.969
RD-ES, 0.00457 µM	0.952
RD-ES, 0.01372 µM	0.957
RD-ES, 0.04115 µM	0.961
RD-ES, 0.1235 µM	0.967
RD-ES, 0.3704 µM	0.962
RD-ES, 1.111 µM	0.951
RD-ES, 3.333 µM	0.923
RD-ES, 10 µM	0.61
SK-ES-1, 0.00017 µM	0.937
SK-ES-1, 0.00051 µM	0.98
SK-ES-1, 0.00152 µM	0.9529
SK-ES-1, 0.00457 µM	0.9471
SK-ES-1, 0.01372 µM	0.983
SK-ES-1, 0.04115 µM	0.9614
SK-ES-1, 0.1235 µM	0.977
SK-ES-1, 0.3704 µM	0.97
SK-ES-1, 1.111 µM	0.957
SK-ES-1, 3.333 µM	0.841
SK-ES-1, 10 µM	0.62
SK-LMS-1, 0.00017 µM	1.02
SK-LMS-1, 0.00051 µM	1.02
SK-LMS-1, 0.00152 µM	1.04
SK-LMS-1, 0.00457 µM	1.02
SK-LMS-1, 0.01372 µM	1.06
SK-LMS-1, 0.04115 µM	1.07
SK-LMS-1, 0.1235 µM	1.05
SK-LMS-1, 0.3704 µM	1.08
SK-LMS-1, 1.111 µM	1.08
SK-LMS-1, 3.333 µM	1.11
SK-LMS-1, 10 µM	0.635
SW684, 0.00017 µM	0.968
SW684, 0.00051 µM	0.9679
SW684, 0.00152 µM	0.985
SW684, 0.00457 µM	1.02
SW684, 0.01372 µM	0.948
SW684, 0.04115 µM	0.9868
SW684, 0.1235 µM	1.01
SW684, 0.3704 µM	1.02
SW684, 1.111 µM	1.03
SW684, 3.333 µM	0.973
SW684, 10 µM	0.59
SW872, 0.00017 µM	0.973
SW872, 0.00051 µM	0.963
SW872, 0.00152 µM	0.954
SW872, 0.00457 µM	0.971
SW872, 0.01372 µM	0.992
SW872, 0.04115 µM	0.968
SW872, 0.1235 µM	0.969
SW872, 0.3704 µM	0.976
SW872, 1.111 µM	0.982
SW872, 3.333 µM	0.916
SW872, 10 µM	0.627
SW982, 0.00017 µM	0.985
SW982, 0.00051 µM	0.972
SW982, 0.00152 µM	0.973
SW982, 0.00457 µM	0.975
SW982, 0.01372 µM	0.97
SW982, 0.04115 µM	0.98
SW982, 0.1235 µM	0.963
SW982, 0.3704 µM	0.979
SW982, 1.111 µM	0.983
SW982, 3.333 µM	0.96
SW982, 10 µM	0.531
VA-ES-BJ, 0.00017 µM	1.02
VA-ES-BJ, 0.00051 µM	1.029
VA-ES-BJ, 0.00152 µM	1.04
VA-ES-BJ, 0.00457 µM	1.024
VA-ES-BJ, 0.01372 µM	1.01
VA-ES-BJ, 0.04115 µM	1.01
VA-ES-BJ, 0.1235 µM	1.01
VA-ES-BJ, 0.3704 µM	1.02
VA-ES-BJ, 1.111 µM	1.02
VA-ES-BJ, 3.333 µM	0.9831
VA-ES-BJ, 10 µM	0.807
